In US8748491B2, “Dietary and pharmaceutical compositions containing tricyclic diterpenes and their derivatives and their uses” (priority 2006, dated 2014):
Marks after values point to notes of the source that are not given here.

Assays:
[1] = test system: mouse; assay: Marble burying test; format: in vivo; conditions: for NUMBER OF MARBLES COVERED BY SAWDUST % change from control / NUMBER OF MARBLES COVERED BY SAWDUST mean ± s.e.m.: mouse
Procedure: The method applied here follows that described by Broekkamp et al., supra. Mice (n=15 per treatment group) were individually placed in transparent plastic cages (33×21×18 cm) with 5 cm of sawdust on the floor and 25 marbles (diameter 1 cm) grouped in the centre of the cage. A second, up-turned, cage served as a lid. The number of marbles covered by sawdust (by at least two-thirds) was counted at the end of the 30-minute test period. Tests were performed by investigators blind to the drug treatment protocol.
Prior to testing, all test cages and marbles were “impregnated” by leaving 10 naive mice in each cage for 15 minutes. […]
Data were analysed by comparing treated groups with vehicle control using unpaired Student's t-tests.

[2] = biological target: T1, human serotonin re-uptake transporter (hSERT) (Homo sapiens, UniProt P31645); assay: Inhibition of tritiated serotonin uptake into transfected HEK-293 cells; format: cell-based; conditions: HEK-293 cells expressing hSERT; 20 nM [3H] serotonin, 40 min, 37° C.; mean ± s.e.m.
T1 construct: host or cells: HEK-293
T1 sequence (P31645 whole entry): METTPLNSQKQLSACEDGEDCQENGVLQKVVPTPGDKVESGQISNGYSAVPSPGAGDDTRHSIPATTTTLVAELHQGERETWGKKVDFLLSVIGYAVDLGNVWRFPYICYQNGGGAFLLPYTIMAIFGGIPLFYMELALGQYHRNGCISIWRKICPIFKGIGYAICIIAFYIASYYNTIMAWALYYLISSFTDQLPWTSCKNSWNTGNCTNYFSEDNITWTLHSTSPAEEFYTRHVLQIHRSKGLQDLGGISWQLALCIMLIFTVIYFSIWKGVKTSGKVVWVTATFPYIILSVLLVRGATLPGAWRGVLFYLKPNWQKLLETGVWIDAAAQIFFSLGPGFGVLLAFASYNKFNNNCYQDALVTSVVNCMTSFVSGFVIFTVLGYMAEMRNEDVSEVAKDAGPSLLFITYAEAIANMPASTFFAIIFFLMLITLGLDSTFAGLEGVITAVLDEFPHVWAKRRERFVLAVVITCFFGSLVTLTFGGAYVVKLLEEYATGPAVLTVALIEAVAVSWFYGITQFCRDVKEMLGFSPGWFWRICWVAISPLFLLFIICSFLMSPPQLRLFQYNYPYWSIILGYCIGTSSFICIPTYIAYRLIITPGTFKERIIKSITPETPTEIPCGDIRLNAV
Description: HEK-293 cells stably expressing the human serotonin re-uptake transporter (hSERT) were obtained from R. Blakely, Vanderbilt University, USA. The cells were routinely grown in Dulbecco's Modified Eagle's Medium (Bioconcept) containing 10% fetal calf serum, penicillin, streptomycin, L-glutamine and the antibiotic G418 and passaged by trypsinisation. On the day of assay, cells from 80% confluent flasks were harvested by gentle washing with warm phosphate buffered saline (PBS). […] Serotonin uptake into the cells was determined by addition of radio-labelled [^3H] serotonin (GE Healthcare) at a concentration of 20 nM, and incubation for 40 minutes at 37° C. with gentle shaking. At the end of this time unincorporated label was removed by filtration though Unifilter 96 GF/B plates (Perkin Elmer) using a Tomtec Mach III M cell harvester. The incorporated serotonin retained on the plates was quantified by liquid scintillation counting using Microscint-40/Topcount (Perkin Elmer).

[3] = biological target: T2, Monoamine oxidase B (MAO-B) (Homo sapiens, UniProt P27338); assay: Monoamine oxidase B inhibition (benzylamine substrate, H2O2/vanillic acid/HRP readout); format: biochemical; conditions: benzylamine 0.5 mM; mean ± s.e.m.; read-out: IC50 [μM] for Inhibition of MAO-B
T2 sequence (P27338 1-520): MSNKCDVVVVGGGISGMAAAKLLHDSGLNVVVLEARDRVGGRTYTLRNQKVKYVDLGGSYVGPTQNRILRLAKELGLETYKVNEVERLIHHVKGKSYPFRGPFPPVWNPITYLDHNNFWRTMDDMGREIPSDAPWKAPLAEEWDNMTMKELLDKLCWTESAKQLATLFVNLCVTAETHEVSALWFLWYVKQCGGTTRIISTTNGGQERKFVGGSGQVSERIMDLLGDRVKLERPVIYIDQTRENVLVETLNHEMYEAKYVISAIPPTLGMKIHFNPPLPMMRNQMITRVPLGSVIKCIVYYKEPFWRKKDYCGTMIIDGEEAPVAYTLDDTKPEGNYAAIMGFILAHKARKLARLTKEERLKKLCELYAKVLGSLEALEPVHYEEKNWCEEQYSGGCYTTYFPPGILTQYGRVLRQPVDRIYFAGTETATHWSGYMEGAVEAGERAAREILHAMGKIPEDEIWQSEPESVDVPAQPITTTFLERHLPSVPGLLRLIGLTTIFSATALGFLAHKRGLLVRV
Procedure: (§1) The organic amines p-tyramine or benzylamine were used as substrates for the Monoamine oxidase A (MAO-A) and B (MAO-B) enzymes respectively. The H2O2 produced by this reaction was quantified by reaction with vanillic acid, catalysed by horse radish peroxidase (HRP).
(§2) The reactions were carried out in polystyrene microtitre plates. The MAO enzymes (final concentration 2 U/ml) were mixed with either p-tyramine (Sigma, final concentration 0.5 mM) or benzylamine (Sigma, final concentration 0.5 mM) as appropriate and the chromogenic solution (containing vanillic acid (Fluka), 4-aminoantipyrine (Fluka) and horse radish peroxidase (Sigma), final concentrations 0.25 mM, 0.125 mM and 1 U/ml respectively) in 0.2 M potassium phosphate buffer, pH 7.6. The reactions were followed in a microtitre plate absorbance reader e.g. Spectramax M5 (Molecular Devices Corporation). Absorbance readings at 495 nm were taken every 15 seconds for 40 minutes and the initial reaction velocities calculated by linear regression using SOFTmaxPro (Molecular Devices Corporation).
(§3) The effect of tricyclic diterpenes and their derivatives according to formula I on the monoamine oxidase enzymes was determined by their inclusion in the assay at a range of concentrations between 0.03 and 100 μM for 10 minutes prior to and during the incubation with substrate. To determine the effect of the compounds on the HRP catalyzed portion of the reaction, the MAO enzyme was replaced by H2O2 (Molecular Probes, final concentration 0.2 mM). The reactions containing MAO-A and MAO-B were both inhibited by tricyclic diterpenes and their derivatives according to formula I in a dose-dependent manner, whilst the control reaction, was unaffected. The measured IC50 values for inhibition of monoamine oxidase activity by carnosic acid, carnosic acid-12-methyl ether and 20-deoxo-carnosol are shown in Table 3.

[4] = biological target: T3, Monoamine oxidase A (MAO-A) (Homo sapiens, UniProt P21397); assay: Monoamine oxidase A inhibition (p-tyramine substrate, H2O2/vanillic acid/HRP readout); format: biochemical; conditions: p-tyramine 0.5 mM; mean ± s.e.m.; read-out: IC50 [μM] for Inhibition of MAO-A
T3 sequence (P21397 1-527): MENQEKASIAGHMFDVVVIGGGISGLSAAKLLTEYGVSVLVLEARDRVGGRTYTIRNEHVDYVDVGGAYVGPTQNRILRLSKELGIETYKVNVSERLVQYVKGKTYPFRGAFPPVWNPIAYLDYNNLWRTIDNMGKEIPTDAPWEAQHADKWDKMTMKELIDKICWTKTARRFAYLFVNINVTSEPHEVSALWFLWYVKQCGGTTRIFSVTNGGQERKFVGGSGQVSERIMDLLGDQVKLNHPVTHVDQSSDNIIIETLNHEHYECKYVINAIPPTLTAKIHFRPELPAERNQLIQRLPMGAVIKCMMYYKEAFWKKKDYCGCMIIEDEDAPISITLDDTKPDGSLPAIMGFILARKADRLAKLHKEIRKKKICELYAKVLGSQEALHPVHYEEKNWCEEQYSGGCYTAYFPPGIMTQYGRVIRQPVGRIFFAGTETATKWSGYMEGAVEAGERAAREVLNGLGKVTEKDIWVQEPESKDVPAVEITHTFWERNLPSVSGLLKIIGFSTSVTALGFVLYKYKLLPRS
Procedure: as §1, §2, §3

[5] = test system: mouse; assay: Porsolt's forced swim test (FST); format: in vivo
Procedure: Mice were individually placed in cylinders (24.5 cm height, 19.5 cm internal diameter) containing 13.5 cm depth of water (22±0.5° C.) for a period of 6 minutes, behavioural parameters of interest being analysed during the final 4 minutes of the test, since the first 2 minutes include vigorous activity. Six cylinders were placed in a Perspex box, thus enabling six mice to be tested simultaneously.
Automatic monitoring of swim tests was enabled through the use of VideoMot2 software (TSE Technical and Scientific Equipment GmbH, Bad Homburg, Germany). All to experiments were observed via a black and white CCD camera. The rest:locomotion and stop:start thresholds, as determined by setting parameters in the software programme, determine the number of pixels which must change for a movement to be registered, enabling the software to determine whether a mouse is swimming or resting. The parameters which are automatically recorded include: rest time and locomotion time (ms), % rest and % locomotion, distance travelled (cm), speed of travel (cm/s) and number of stops.
Data were analysed by comparing treated groups with the untreated control group using Fisher's PLSD (StatView, SAS Institute Inc., Cary, N.C., USA)

[6] = test system: mouse; assay: Light dark box test; format: in vivo; conditions: mouse, 32 mg/kg p.o. −1 h
Description: The method, which detects anxiolytic activity, follows that described by Crawley, 1981 Pharmacol. Biochem. Behav., 15:695-699. Anxiolytics increase the time spent in the light compartment.
Animals were placed into the light compartment of a 2-compartment box with one half light and open (25×27×27 cm) and the other half dark and closed (20×27×27 cm). The time spent in each compartment as well as the number of times the animal crosses from one side to the other is scored during a 3-minute test. 15 mice were studied per group. The test was performed blind.
Carnosic acid was evaluated at 3 doses (100, 200, 400 mg/kg BW), administered by oral gavage (p.o.) 24, 5 and 1 hour before the test, and compared with a vehicle control group (corn oil). Carnosic acid was dissolved in corn oil (“vehicle”). Clobazam (32 mg/kg p.o.), administered 1 hour before the test, was used as reference substance. Mice in this group received additional administrations of vehicle at 24 and 5 hours before the test in order to maintain experimental blinding.

[7] = Table 6, 100 mg/kg i.p. −30 min
[8] = Table 6, 200 mg/kg i.p. −30 min

COc1ccc(C(CN(C)C)C2(O)CCCCC2)cc1 (stereo not drawn) [VENLAFAXINE, venlafaxine, reference compound]
NUMBER OF MARBLES COVERED BY SAWDUST % change from control ([1]; Table 6, 16 mg/kg i.p. −30 min): −60% | NUMBER OF MARBLES COVERED BY SAWDUST mean ± s.e.m. ([1]; Table 6, 16 mg/kg i.p. −30 min): 8.7 ± 2.2

CC(C)c1ccc2c(c1)C(=O)C[C@H]1[C@](C)(C(=O)O)CCC[C@]21C [7-Oxocallitrisic Acid, 7-oxocallitrisic acid]
IC50 [2]: 32.9 ± 8.6 µM

COC(=O)C1(C)CCCC2(C)c3ccc(O)c(C(C)C)c3CCC12 (stereo not drawn) [Totarol-19-carboxylic acid methyl ester, totarol-19-carboxylic acid methyl ester]
IC50 [2]: 7.2 µM

COc1c(C(C)C)cc2c(c1O)C1(C(=O)O)CCCC(C)(C)C1CC2 (stereo not drawn) [Carnosic acid-12-methylether, carnosic acid 12-methyl ether]
IC50 [3]: 83.1 ± 6.8 µM | IC50 [2]: 22 ± 4.9 µM | IC50 [4]: 40.6 ± 0.25 µM

CNCCC(Oc1ccc(C(F)(F)F)cc1)c1ccccc1 (stereo not drawn) [Fluoxetine, fluoxetine, reference compound]
NUMBER OF MARBLES COVERED BY SAWDUST % change from control ([1]; Table 5, 32 mg/kg i.p. −30 min): −100% | NUMBER OF MARBLES COVERED BY SAWDUST mean ± s.e.m. ([1]; Table 5, 32 mg/kg i.p. −30 min): 0.0 ± 0.0 | NUMBER OF MARBLES COVERED BY SAWDUST % change from control ([1]; Table 6, 32 mg/kg i.p. −30 min): −100% | NUMBER OF MARBLES COVERED BY SAWDUST mean ± s.e.m. ([1]; Table 6, 32 mg/kg i.p. −30 min): 0.0***

CC(C)c1c(O)ccc2c1CC[C@H]1C(C)(C)CCC[C@]21C [Totarol, totarol]
IC50 [2]: 7.5 ± 2.6 µM

CC(C)c1cc2c(c(O)c1O)[C@@]13CCCC(C)(C)[C@@H]1C[C@@H]2OC3 [20-Deoxo-carnosol, 20-deoxo-carnosol]
IC50 [3]: 27 ± 7.3 µM | IC50 [2]: 4.2 ± 0.2 µM | NUMBER OF MARBLES COVERED BY SAWDUST % change from control ([1]; Table 6, 30 mg/kg i.p. −30 min): −24% | NUMBER OF MARBLES COVERED BY SAWDUST mean ± s.e.m. ([1]; Table 6, 30 mg/kg i.p. −30 min): 16.7 ± 2.2 | NUMBER OF MARBLES COVERED BY SAWDUST % change from control [1, 7]: −56% | NUMBER OF MARBLES COVERED BY SAWDUST mean ± s.e.m. [1, 7]: 9.7 ± 2.3 | NUMBER OF MARBLES COVERED BY SAWDUST % change from control [1, 8]: −60% | NUMBER OF MARBLES COVERED BY SAWDUST mean ± s.e.m. [1, 8]: 8.8 ± 2.4 | marble burying behaviour (in words) ([1]; mouse, 30, 100 and 200 mg/kg i.p.): dose-dependently and significantly reduced marble burying behaviour | IC50 [4]: 4.3 ± 1.1 µM

CN(C)CCCN1c2ccccc2CCc2ccccc21 [imipramine, reference compound]
Duration of immobility (% change from control) ([5]; 32 mg/kg i.p., −30 min): −61% | Duration of immobility (% change from control) ([5]; 32 mg/kg p.o., −24, −5, −1 h): −56%

16-hydroxytotarol
IC50 [2]: 7.4 µM

CN1C(=O)CC(=O)N(c2ccccc2)c2cc(Cl)ccc21 [Clobazam, clobazam, reference compound]
NUMBER OF CROSSINGS % change from control [6]: +56% | TIME SPENT IN THE LIGHT COMPARTMENT % change from control [6]: +43%
